# Measured values: ChEMBL document CHEMBL1201862, “PubChem BioAssay data set” (2004)
#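 In this assay, cells in 96-well plates receive the compound at five concentrations for 48 hours. Endpoints are linearly interpolated between the surrounding concentrations. The concentration for 50% growth inhibition is given as GI50.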 The source made the active and inactive calls. Rule as the data show it: active = GI50 up to about 1.1 µM and inactive = higher.
# What was measured:
# Assay in all cases: growth of human tumour cells (NCI), 48 h
# 786-0 = test system: 786-0
# A498 = test system: A498
# A549 = test system: A549
# ACHN = test system: ACHN
# BT-549 = test system: BT-549
# CAKI-1 = test system: CAKI-1
# CCRF-CEM = test system: CCRF-CEM
# COLO 205 = test system: COLO 205
# DU-145 = test system: DU-145
# EKVX = test system: EKVX
# HCT-116 = test system: HCT-116
# HCT-15 = test system: HCT-15
# HOP-62 = test system: HOP-62
# HT-29 = test system: HT-29
# Hs-578T = test system: Hs-578T
# KM12 = test system: KM12
# LOX IMVI = test system: LOX IMVI
# M14 = test system: M14
# MCF7 = test system: MCF7
# MDA-MB-231 = test system: MDA-MB-231
# MDA-MB-435 = test system: MDA-MB-435
# MDA-N = test system: MDA-N
# Malme-3M = test system: Malme-3M
# NCI-H23 = test system: NCI-H23
# NCI-H460 = test system: NCI-H460
# NCI-H522 = test system: NCI-H522
# NCI/ADR-RES = test system: NCI/ADR-RES
# OVCAR-3 = test system: OVCAR-3
# OVCAR-4 = test system: OVCAR-4
# OVCAR-5 = test system: OVCAR-5
# PC-3 = test system: PC-3
# RPMI-8226 = test system: RPMI-8226
# RXF 393 = test system: RXF 393
# SF-295 = test system: SF-295
# SF-539 = test system: SF-539
# SK-MEL-28 = test system: SK-MEL-28
# SK-MEL-2 = test system: SK-MEL-2
# SK-MEL-5 = test system: SK-MEL-5
# SK-OV-3 = test system: SK-OV-3
# SN12C = test system: SN12C
# SNB-19 = test system: SNB-19
# SNB-75 = test system: SNB-75
# SR = test system: SR
# SW-620 = test system: SW-620
# T47D = test system: T47D
# TK-10 = test system: TK-10
# U-251 = test system: U-251
# UACC-257 = test system: UACC-257
# UACC-62 = test system: UACC-62
# UO-31 = test system: UO-31
# HL-60 = test system: HL-60
# IGROV-1 = test system: IGROV-1
# K562 = test system: K562
# MOLT-4 = test system: MOLT-4
# NCI-H226 = test system: NCI-H226
# OVCAR-8 = test system: OVCAR-8
# SF-268 = test system: SF-268
# HCC 2998 = test system: HCC 2998
# HOP-92 = test system: HOP-92
smiles,measurement,setting,value
O=C(O)C1C2CCC(O2)C1C(=O)NCc1cccnc1 (stereo not drawn),GI50,786-0,> 100 µM (inactive)
same,GI50,A498,> 100 µM (inactive)
same,GI50,A549,> 100 µM (inactive)
same,GI50,ACHN,> 100 µM (inactive)
same,GI50,BT-549,> 100 µM (inactive)
same,GI50,CAKI-1,> 100 µM (inactive)
same,GI50,CCRF-CEM,> 100 µM (inactive)
same,GI50,COLO 205,> 100 µM (inactive)
same,GI50,DU-145,> 100 µM (inactive)
same,GI50,EKVX,> 100 µM (inactive)
same,GI50,HCT-116,> 100 µM (inactive)
same,GI50,HCT-15,> 100 µM
same,GI50,HOP-62,> 100 µM (inactive)
same,GI50,HT-29,> 100 µM (inactive)
same,GI50,Hs-578T,> 100 µM (inactive)
same,GI50,KM12,> 100 µM (inactive)
same,GI50,LOX IMVI,> 100 µM (inactive)
same,GI50,M14,> 100 µM (inactive)
same,GI50,MCF7,> 100 µM (inactive)
same,GI50,MDA-MB-231,> 100 µM (inactive)
same,GI50,MDA-MB-435,> 100 µM (inactive)
same,GI50,MDA-N,> 100 µM (inactive)
same,GI50,Malme-3M,> 100 µM (inactive)
same,GI50,NCI-H23,> 100 µM (inactive)
same,GI50,NCI-H460,> 100 µM (inactive)
same,GI50,NCI-H522,> 100 µM (inactive)
same,GI50,NCI/ADR-RES,> 100 µM (inactive)
same,GI50,OVCAR-3,> 100 µM (inactive)
same,GI50,OVCAR-4,> 100 µM (inactive)
same,GI50,OVCAR-5,> 100 µM (inactive)
same,GI50,PC-3,> 100 µM (inactive)
same,GI50,RPMI-8226,> 100 µM (inactive)
same,GI50,RXF 393,> 100 µM (inactive)
same,GI50,SF-295,> 100 µM (inactive)
same,GI50,SF-539,> 100 µM (inactive)
same,GI50,SK-MEL-28,> 100 µM (inactive)
same,GI50,SK-MEL-2,> 100 µM (inactive)
same,GI50,SK-MEL-5,> 100 µM (inactive)
same,GI50,SK-OV-3,> 100 µM (inactive)
same,GI50,SN12C,> 100 µM (inactive)
same,GI50,SNB-19,> 100 µM (inactive)
same,GI50,SNB-75,> 100 µM (inactive)
same,GI50,SR,> 100 µM (inactive)
same,GI50,SW-620,> 100 µM (inactive)
same,GI50,T47D,> 100 µM (inactive)
same,GI50,TK-10,> 100 µM (inactive)
same,GI50,U-251,> 100 µM (inactive)
same,GI50,UACC-257,> 100 µM (inactive)
same,GI50,UACC-62,> 100 µM (inactive)
same,GI50,UO-31,> 100 µM (inactive)
CCOC(=O)c1c(NS(=O)(=O)c2ccccc2)sc2c1CCCC2,GI50,786-0,80.5 µM (inactive)
same,GI50,A498,98.2 µM (inactive)
same,GI50,A549,47.9 µM (inactive)
same,GI50,ACHN,64.6 µM (inactive)
same,GI50,BT-549,> 100 µM (inactive)
same,GI50,CAKI-1,> 100 µM (inactive)
same,GI50,CCRF-CEM,25.5 µM (inactive)
same,GI50,COLO 205,44.4 µM (inactive)
same,GI50,DU-145,89.5 µM (inactive)
same,GI50,EKVX,48.4 µM (inactive)
same,GI50,HCT-116,37.7 µM (inactive)
same,GI50,HCT-15,33.7 µM
same,GI50,HL-60,57.5 µM (inactive)
same,GI50,HOP-62,46.5 µM (inactive)
same,GI50,HT-29,39.4 µM (inactive)
same,GI50,Hs-578T,82.8 µM (inactive)
same,GI50,IGROV-1,54.8 µM (inactive)
same,GI50,K562,30.8 µM (inactive)
same,GI50,KM12,22.1 µM (inactive)
same,GI50,M14,81.3 µM (inactive)
same,GI50,MCF7,46.7 µM (inactive)
same,GI50,MDA-MB-231,> 100 µM (inactive)
same,GI50,MDA-N,> 100 µM (inactive)
same,GI50,MOLT-4,40.6 µM (inactive)
same,GI50,NCI-H226,> 100 µM (inactive)
same,GI50,NCI-H23,> 100 µM (inactive)
same,GI50,NCI-H460,> 100 µM (inactive)
same,GI50,NCI/ADR-RES,62.1 µM (inactive)
same,GI50,OVCAR-3,22.5 µM (inactive)
same,GI50,OVCAR-5,> 100 µM (inactive)
same,GI50,OVCAR-8,56.8 µM (inactive)
same,GI50,PC-3,39.5 µM (inactive)
same,GI50,RPMI-8226,26.9 µM (inactive)
same,GI50,RXF 393,> 100 µM (inactive)
same,GI50,SF-268,64.9 µM (inactive)
same,GI50,SF-295,43.6 µM (inactive)
same,GI50,SF-539,> 100 µM (inactive)
same,GI50,SK-MEL-2,68.1 µM (inactive)
same,GI50,SK-MEL-5,74.5 µM (inactive)
same,GI50,SN12C,66.7 µM (inactive)
same,GI50,SNB-19,93.1 µM (inactive)
same,GI50,SNB-75,> 100 µM (inactive)
same,GI50,SR,59.8 µM (inactive)
same,GI50,T47D,47.8 µM (inactive)
same,GI50,TK-10,62.8 µM (inactive)
same,GI50,UACC-257,81.7 µM (inactive)
same,GI50,UACC-62,76 µM (inactive)
same,GI50,UO-31,70.5 µM (inactive)
CC12CC(C#N)(C#N)C(C#N)(CO1)C(=N)O2 (stereo not drawn),GI50,786-0,> 100 µM (inactive)
same,GI50,A498,> 100 µM (inactive)
same,GI50,A549,> 100 µM (inactive)
same,GI50,ACHN,> 100 µM (inactive)
same,GI50,BT-549,> 100 µM (inactive)
same,GI50,CAKI-1,31.8 µM (inactive)
same,GI50,CCRF-CEM,26.9 µM (inactive)
same,GI50,COLO 205,37.8 µM (inactive)
same,GI50,DU-145,> 100 µM (inactive)
same,GI50,EKVX,> 100 µM (inactive)
same,GI50,HCC 2998,> 100 µM (inactive)
same,GI50,HCT-116,64.3 µM (inactive)
same,GI50,HCT-15,40.6 µM
same,GI50,HL-60,44.2 µM (inactive)
same,GI50,HOP-92,52.7 µM (inactive)
same,GI50,HT-29,69.2 µM (inactive)
same,GI50,Hs-578T,27.7 µM (inactive)
same,GI50,IGROV-1,> 100 µM (inactive)
same,GI50,K562,75.7 µM (inactive)
same,GI50,KM12,> 100 µM (inactive)
same,GI50,LOX IMVI,49.3 µM (inactive)
same,GI50,M14,> 100 µM (inactive)
same,GI50,MCF7,> 100 µM (inactive)
same,GI50,MDA-MB-231,> 100 µM (inactive)
same,GI50,MDA-MB-435,> 100 µM (inactive)
same,GI50,MDA-N,> 100 µM (inactive)
same,GI50,MOLT-4,54.3 µM (inactive)
same,GI50,Malme-3M,24.2 µM (inactive)
same,GI50,NCI-H226,> 100 µM (inactive)
same,GI50,NCI-H23,> 100 µM (inactive)
same,GI50,NCI-H460,63.7 µM (inactive)
same,GI50,NCI/ADR-RES,71.1 µM (inactive)
same,GI50,OVCAR-3,> 100 µM (inactive)
same,GI50,OVCAR-4,> 100 µM (inactive)
same,GI50,OVCAR-5,> 100 µM (inactive)
same,GI50,OVCAR-8,> 100 µM (inactive)
same,GI50,PC-3,> 100 µM (inactive)
same,GI50,RXF 393,59.7 µM (inactive)
same,GI50,SF-268,> 100 µM (inactive)
same,GI50,SF-295,> 100 µM (inactive)
same,GI50,SF-539,> 100 µM (inactive)
same,GI50,SK-MEL-28,> 100 µM (inactive)
same,GI50,SK-MEL-2,> 100 µM (inactive)
same,GI50,SK-MEL-5,> 100 µM (inactive)
same,GI50,SK-OV-3,> 100 µM (inactive)
same,GI50,SN12C,> 100 µM (inactive)
same,GI50,SNB-19,> 100 µM (inactive)
same,GI50,SNB-75,> 100 µM (inactive)
same,GI50,SW-620,53.6 µM (inactive)
same,GI50,T47D,> 100 µM (inactive)
same,GI50,TK-10,> 100 µM (inactive)
same,GI50,U-251,> 100 µM (inactive)
same,GI50,UACC-257,> 100 µM (inactive)
same,GI50,UACC-62,24.9 µM (inactive)
same,GI50,UO-31,> 100 µM (inactive)
